# Measurements published in publication PMC9203742 (Nature Communications, 2022).
# “And” between values parts separate entries of the source, which are not always exact repeats. Identical values can stand only once.
# How the values were obtained:
# WT mGlu1 = biological target: T1, WT mGlu1 (Rattus norvegicus, UniProt P23385); format: cell-based; also: test concentration or dose not given here
# T1 construct: expressed in transfected cells; host or cells: HEK293
# mGlu1 P58H/N264H mutant = biological target: T2, mGlu1 P58H/N264H mutant (Rattus norvegicus, UniProt P23385, N264H/P58H); test: Fura-2 Ca2+ imaging in HEK293 cells expressing mGlu1 P58H/N264H; format: cell-based
# T2 construct: expressed in transfected cells; host or cells: HEK293
# mGlu1 A59H/N264H mutant = biological target: T3, mGlu1 A59H/N264H mutant (Rattus norvegicus, UniProt P23385, A59H/N264H); test: Fura-2 Ca2+ imaging in HEK293 cells expressing mGlu1 A59H/N264H; format: cell-based
# T3 construct: expressed in transfected cells; host or cells: HEK293
# mGlu1 K61H/N264H mutant = biological target: T4, mGlu1 K61H/N264H mutant (Rattus norvegicus, UniProt P23385, K61H/N264H); test: Fura-2 Ca2+ imaging in HEK293 cells expressing mGlu1 K61H/N264H; format: cell-based
# T4 construct: expressed in transfected cells; host or cells: HEK293
# mGlu1 P57H/N264H mutant = biological target: T5, mGlu1 P57H/N264H mutant (Rattus norvegicus, UniProt P23385, N264H/P57H); test: Fura-2 Ca2+ imaging in HEK293 cells expressing mGlu1 P57H/N264H; format: cell-based
# T5 construct: expressed in transfected cells; host or cells: HEK293
# mGlu1 E60H/N264H mutant = biological target: T6, mGlu1 E60H/N264H mutant (Rattus norvegicus, UniProt P23385, E60H/N264H); test: Fura-2 Ca2+ imaging in HEK293 cells expressing mGlu1 E60H/N264H; format: cell-based
# T6 construct: expressed in transfected cells; host or cells: HEK293
# [1] = system: HEK293 cells, vector control; test: Fura-2 Ca2+ imaging in HEK293 cells transfected with control vector (Vec); format: cell-based; conditions: single-cell values #1-#20; as to Ca2+ response of individual cells (source data Suppl Fig1), Vec: test concentration or dose not given here
# [2] = system: mGlu1 construct not given; test: Fura-2 Ca2+ imaging in HEK293 cells, source data Suppl Fig1, left group (c0-c8); construct not given; format: cell-based, rat; conditions: single-cell values, cells #15-#20; left group of third block
# Description: (§1) Supplement 41467_2022_30828_MOESM6_ESM.zip/Ojima et al_source data_Suppl Fig.xlsx, sheet "Suppl Fig1" | column: Glu; NiCl2; CuCl2; ZnCl2; CdCl2; Na2PdCl2; Pd(bpy)
# [3] = system: HEK293 cells, vector control; test: Fura-2 Ca2+ imaging in HEK293 cells transfected with control vector (Vec); format: cell-based; conditions: Fig.1e; as to Ca2+ response of individual cells (source data Suppl Fig1), Vec: test concentration or dose not given here
# Description: Supplement 41467_2022_30828_MOESM6_ESM.zip/Ojima et al_source data_Main Figure.xlsx, sheet "Fig.1e" | column: Vec
# mGlu1 A59H/A265H mutant [4] = biological target: T7, mGlu1 A59H/A265H mutant (Rattus norvegicus, UniProt P23385, A265H/A59H); test: Fura-2 Ca2+ imaging in HEK293 cells expressing mGlu1 A59H/A265H; format: cell-based; conditions: single-cell values
# T7 construct: expressed in transfected cells; host or cells: HEK293
# [5] = system: mGlu1 construct not given; test: Fura-2 Ca2+ imaging in HEK293 cells, source data Suppl Fig1, middle group (c9-c17); construct not given; format: cell-based, rat; conditions: single-cell values, cells #15-#20; middle group of third block
# Description: as §1
# mGlu1 A59H/A265H mutant [6] = biological target: T7, mGlu1 A59H/A265H mutant; test: Fura-2 Ca2+ imaging in HEK293 cells expressing mGlu1 A59H/A265H; format: cell-based; conditions: Fig.1e
# mGlu1 A59H/G266H mutant [7] = biological target: T8, mGlu1 A59H/G266H mutant (Rattus norvegicus, UniProt P23385, A59H/G266H); test: Fura-2 Ca2+ imaging in HEK293 cells expressing mGlu1 A59H/G266H; format: cell-based; conditions: single-cell values; as to Ca2+ response (delta ratio), A59H/G266H: test concentration or dose not given here
# T8 construct: expressed in transfected cells; host or cells: HEK293
# [8] = system: mGlu1 construct not given; test: Fura-2 Ca2+ imaging in HEK293 cells, source data Suppl Fig1, right group (c18-c26); construct not given; format: cell-based, rat; conditions: single-cell values, cells #15-#20; right group of third block
# Description: as §1
# mGlu1 A59H/G266H mutant [9] = biological target: T8, mGlu1 A59H/G266H mutant; test: Fura-2 Ca2+ imaging in HEK293 cells expressing mGlu1 A59H/G266H; format: cell-based; conditions: Fig.1e
# T3 sequence (P23385 19-1199 A59H/N264H): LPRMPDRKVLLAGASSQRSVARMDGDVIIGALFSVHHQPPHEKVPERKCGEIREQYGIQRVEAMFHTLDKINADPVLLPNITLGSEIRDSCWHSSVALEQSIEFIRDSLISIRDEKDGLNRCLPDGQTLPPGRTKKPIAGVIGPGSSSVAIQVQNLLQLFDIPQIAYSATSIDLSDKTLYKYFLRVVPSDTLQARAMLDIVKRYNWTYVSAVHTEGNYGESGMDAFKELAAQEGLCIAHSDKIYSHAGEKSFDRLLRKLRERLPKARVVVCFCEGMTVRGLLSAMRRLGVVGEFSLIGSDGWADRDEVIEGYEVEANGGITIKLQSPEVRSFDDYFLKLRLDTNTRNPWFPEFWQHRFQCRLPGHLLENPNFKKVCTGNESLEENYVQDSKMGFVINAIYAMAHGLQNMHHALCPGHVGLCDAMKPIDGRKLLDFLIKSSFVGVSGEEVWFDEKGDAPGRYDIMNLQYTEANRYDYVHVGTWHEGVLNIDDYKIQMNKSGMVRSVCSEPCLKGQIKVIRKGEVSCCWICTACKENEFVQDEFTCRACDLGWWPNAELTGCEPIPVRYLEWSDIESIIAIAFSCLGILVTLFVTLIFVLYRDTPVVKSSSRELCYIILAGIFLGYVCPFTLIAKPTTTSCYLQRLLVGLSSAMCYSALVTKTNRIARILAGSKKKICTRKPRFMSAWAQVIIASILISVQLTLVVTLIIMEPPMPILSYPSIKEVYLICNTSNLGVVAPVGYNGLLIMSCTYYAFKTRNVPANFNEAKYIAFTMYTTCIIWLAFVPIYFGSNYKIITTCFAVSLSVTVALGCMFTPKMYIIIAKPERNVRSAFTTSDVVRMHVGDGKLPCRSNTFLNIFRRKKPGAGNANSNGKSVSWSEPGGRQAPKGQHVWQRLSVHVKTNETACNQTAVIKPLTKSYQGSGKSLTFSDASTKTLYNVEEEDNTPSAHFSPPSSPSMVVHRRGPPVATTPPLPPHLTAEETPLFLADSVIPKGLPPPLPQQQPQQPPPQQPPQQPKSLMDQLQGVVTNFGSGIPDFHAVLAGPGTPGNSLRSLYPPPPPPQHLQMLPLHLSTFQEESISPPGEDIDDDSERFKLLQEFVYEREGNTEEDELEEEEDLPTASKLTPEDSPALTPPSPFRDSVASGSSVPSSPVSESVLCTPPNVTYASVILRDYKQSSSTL
# T7 sequence (P23385 19-1199 A59H/A265H): as the sequence (P23385 19-1199 A59H/N264H) above, with H246N, A247H counted along it
# T5 sequence (P23385 19-1199 P57H/N264H): as the sequence (P23385 19-1199 A59H/N264H) above, with P39H, H41A counted along it
# T2 sequence (P23385 19-1199 P58H/N264H): as the sequence (P23385 19-1199 A59H/N264H) above, with P40H, H41A counted along it
# T8 sequence (P23385 19-1199 A59H/G266H): as the sequence (P23385 19-1199 A59H/N264H) above, with H246N, G248H counted along it
# T6 sequence (P23385 19-1199 E60H/N264H): as the sequence (P23385 19-1199 A59H/N264H) above, with H41A, E42H counted along it
# T1 sequence (P23385 19-1199): as the sequence (P23385 19-1199 A59H/N264H) above, with H41A, H246N counted along it
# T4 sequence (P23385 19-1199 K61H/N264H): as the sequence (P23385 19-1199 A59H/N264H) above, with H41A, K43H counted along it
smiles,measurement,setting,value
[Cl][Cu][Cl] [CuCl2],"Ca2+ response (delta ratio), WT",WT mGlu1; Fig.1e,0.02902
same,"Ca2+ response of individual cells (source data Suppl Fig1), WT","WT mGlu1; single-cell values #1-#20, WT",0.02565 and 0.01115 and 0.003838 and 0.01123 and 0.01654 and 0.01648 and -0.004477 and -0.001046 and -0.0009077 and 0.04058 and 0.008923 and 0.1117 and -0.006138 and 0.001246 and 0.02892 and 0.05005 and 0.02387 and -0.0088 and -0.01073 and 0.2624
same,"Ca2+ response (delta ratio), P58H/N264H",mGlu1 P58H/N264H mutant; Fig.1e,-0.01421
same,"Ca2+ response of individual cells (source data Suppl Fig1), P58H/N264H","mGlu1 P58H/N264H mutant; single-cell values #1-#20, P58H/N264H",-0.02928 and 0.02135 and -0.1614 and -0.04317 and -0.03766 and -0.009985 and 0.06338 and -0.01091 and -0.1246 and -0.02604 and 0.008315 and -0.1403 and -0.007362 and 0.04025 and -0.04095 and 0.177 and 0.01632 and 0.001515 and 0.03036 and -0.0111
same,"Ca2+ response (delta ratio), A59H/N264H",mGlu1 A59H/N264H mutant; Fig.1e,-0.008971
same,"Ca2+ response of individual cells (source data Suppl Fig1), A59H/N264H","mGlu1 A59H/N264H mutant; single-cell values #1-#20, A59H/N264H",0.01442 and -0.1061 and -0.004715 and -0.004738 and -0.008577 and -0.007731 and 0.0007462 and -0.01637 and -0.006738 and -0.004831 and 0.04273 and 0.05223 and 0.05741 and -0.09539 and -0.006538 and 0.01191 and -0.02261 and -0.005077 and -0.03944 and -0.03002
same,"Ca2+ response (delta ratio), K61H/N264H",mGlu1 K61H/N264H mutant; Fig.1e,-0.008802
same,"Ca2+ response of individual cells (source data Suppl Fig1), K61H/N264H","mGlu1 K61H/N264H mutant; single-cell values, K61H/N264H",-0.02337 and 0.01083 and -0.01322 and 0.006669 and -0.02188 and -0.01248 and -0.01492 and -0.01697 and -0.01238 and 0.05283 and -0.01893 and -0.01583 and -0.01651 and -0.01879
same,"Ca2+ response (delta ratio), P57H/N264H",mGlu1 P57H/N264H mutant; Fig.1e,0.007634
same,"Ca2+ response of individual cells (source data Suppl Fig1), P57H/N264H","mGlu1 P57H/N264H mutant; single-cell values #1-#20, P57H/N264H",-0.009615 and 0.002477 and 0.01378 and 0.02434 and 0.0008462 and 0.008 and -0.0007 and 0.008062 and 0.01831 and -0.0008538 and 0.01338 and 0.01485 and 0.01 and 0.001692 and -0.005731 and 0.03126 and 0.0103 and 0.01328 and -0.004977 and 0.003977
same,"Ca2+ response (delta ratio), E60H/N264H",mGlu1 E60H/N264H mutant; Fig.1e,-0.0006131
same,"Ca2+ response of individual cells (source data Suppl Fig1), E60H/N264H","mGlu1 E60H/N264H mutant; single-cell values #1-#20, E60H/N264H",0.001946 and 0.001985 and -0.004585 and 0.05012 and -0.01047 and -0.007438 and -0.008146 and -0.01882 and 0.02938 and -0.02675 and -0.0009231 and -0.009708 and 0.06405 and 0.006685 and -0.01392 and -0.007992 and -0.007615 and -0.01812 and -0.013 and -0.01895
same,"Ca2+ response of individual cells (source data Suppl Fig1), Vec",[1],0.02461 and -0.003092 and 0.01753 and 0.02088 and 0.01475 and -0.003385 and 0.07142 and 0.01504 and 0.02807 and 0.04525 and 0.001746 and 0.01458 and 0.01948 and -0.006131 and 0.04009 and 0.01931 and 0.02889 and 0.01229 and -0.005492 and -0.004385
same,"Ca2+ response of individual cells (source data, sheet Suppl Fig1)",[2],0.006485 and -0.01132 and -0.01643 and -0.02029 and -0.01602 and -0.0035
same,"Ca2+ response (delta ratio), Vec",[3],0.01757
same,"Ca2+ response of individual cells (source data Suppl Fig1), A59H/A265H",mGlu1 A59H/A265H mutant [4],-0.01552 and 0.009746 and -0.01265 and -0.0065 and 0.009708 and -0.002746 and 0.009762 and -0.01072 and 0.004462 and -0.01463 and 0.01478 and 0.0025 and 0.01092 and -0.009138
same,"Ca2+ response of individual cells (source data, sheet Suppl Fig1)",[5],-0.002923 and 0.002562 and 0.004815 and -0.0036 and -0.004154 and 0.002577
same,"Ca2+ response (delta ratio), A59H/A265H",mGlu1 A59H/A265H mutant [6],-0.0005365
same,"Ca2+ response of individual cells (source data Suppl Fig1), A59H/G266H",mGlu1 A59H/G266H mutant [7],-0.005931 and -0.06262 and 0.006338 and -0.05078 and -0.003546 and -0.0521 and 0.002277 and -0.02358 and 0.04298 and -0.0436 and -0.1049 and -0.001831 and 0.0158 and -0.01046
same,"Ca2+ response of individual cells (source data, sheet Suppl Fig1)",[8],-0.007831 and 0.008223 and -0.0022 and 0.006269 and -0.002515 and 0.01038
same,"Ca2+ response (delta ratio), A59H/G266H",mGlu1 A59H/G266H mutant [9],-0.01398
